The target of assay [1] is T1, CBC complex (CBP20 and CBP80) (Homo sapiens, UniProt P52298+Q09161).
T1 construct: made in house
T1 sequence (Q09161 20-790 limits assumed): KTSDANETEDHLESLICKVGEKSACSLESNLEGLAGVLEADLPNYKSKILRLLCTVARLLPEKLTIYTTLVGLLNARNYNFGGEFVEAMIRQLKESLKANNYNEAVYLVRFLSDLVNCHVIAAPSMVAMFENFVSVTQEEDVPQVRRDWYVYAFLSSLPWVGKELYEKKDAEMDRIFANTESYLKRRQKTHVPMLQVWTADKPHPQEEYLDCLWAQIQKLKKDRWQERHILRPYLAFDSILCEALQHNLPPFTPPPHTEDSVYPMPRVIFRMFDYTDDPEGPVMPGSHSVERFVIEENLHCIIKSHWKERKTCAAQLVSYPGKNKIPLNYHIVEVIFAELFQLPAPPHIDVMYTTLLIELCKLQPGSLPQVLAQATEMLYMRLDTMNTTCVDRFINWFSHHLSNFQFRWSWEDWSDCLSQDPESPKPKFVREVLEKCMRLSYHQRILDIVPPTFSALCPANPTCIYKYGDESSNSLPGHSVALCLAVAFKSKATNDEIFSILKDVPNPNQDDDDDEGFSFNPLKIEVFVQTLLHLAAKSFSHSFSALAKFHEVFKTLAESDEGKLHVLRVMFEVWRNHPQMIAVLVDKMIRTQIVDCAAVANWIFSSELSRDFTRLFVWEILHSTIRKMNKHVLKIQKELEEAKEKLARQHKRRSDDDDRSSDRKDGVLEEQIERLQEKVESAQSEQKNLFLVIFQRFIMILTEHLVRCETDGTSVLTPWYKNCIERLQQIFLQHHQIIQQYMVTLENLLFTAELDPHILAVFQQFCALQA
T1 sequence (P52298 1-156): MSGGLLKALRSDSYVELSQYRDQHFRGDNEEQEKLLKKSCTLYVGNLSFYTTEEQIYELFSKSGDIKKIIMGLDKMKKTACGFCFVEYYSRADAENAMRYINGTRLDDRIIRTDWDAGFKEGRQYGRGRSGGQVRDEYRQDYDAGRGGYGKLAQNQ
The assay is described as follows: UV-induced covalent bridging of purified recombinant CBP20 and CBP80 (SDS-PAGE / Western blot). The conditions noted are these: purified recombinant CBP20 and CBP80, UV light, resolved by SDS-PAGE. The class given is binding. As to the method:
FIG. 1A. Compounds 1 and 2 interact with the CBC complex. Purified recombinant CBP20 and CBP80 proteins were incubated with increasing concentrations of Compound 2 (left panel) or Compound 1 (right panel, Gluc) and treated during 30 min (Compound 1) or 15 min (Compound 2) with UV light. […] Left panel: from left to right, incubation with 0.1 (lane 1), 1 (lane 2), 10 (lane 3) and 50 μM (lane 4) […]. Right panel: from left to right, incubation with 1 (lane 1), 10 (lane 2), 50 (lane 3), 100 μM (lane 4) and 200 μM (lane 5) of Compound 1.
The recombinant CBC complex, comprising CBP20 and CBP80, is prepared according to the protocol which has been described in Worch, R. et al. (Specificity of recognition of mRNA 5′ cap by human nuclear cap-binding complex. RNA 11, 1355-1363 (2005)).
Compound 1 can make covalent binding with purified CBC complex after […] irradiation with UV light at 365 nm.
The same results were obtained with the glucuronidated Compound 1, the more soluble derivative of Compound 2 that is produced as metabolite using human hepatocytes.
A general note: In western blotting, separated proteins are transferred to a membrane and probed.

Assay [2] deals with T2, Recombinant human CBC with capped RNA substrate (Homo sapiens, UniProt P52298+Q09161).
T2 construct: made in house
T2 sequence (Q09161 20-790 limits assumed): T1 sequence (Q09161 20-790 limits assumed)
T2 sequence (P52298 1-156): T1 sequence (P52298 1-156)
The assay is described as follows: Gel-mobility shift assay of CBC binding to capped RNA. The following applies: Compound 1 5-100 μM, Compound 2 5-50 μM, m7GpppG 12 mM. As to the method:
FIG. 1B. […] Recombinant human CBC was incubated with a capped RNA substrate and analyzed by native gel electrophoresis in order to resolve the different RNA and RNA-protein complexes: free RNA (lane 1), and CBC-RNA complexes (lanes 2-10) in the presence of 12 mM of m7GppG (lanes 10) or 5 μM, 10 μM or 50 μM of Compound 2 (lanes 2-5, respectively) and 5 μM, 10 μM, 50 μM or 100 μM of Compound 1 (lanes 6-9, respectively).
Recombinant human CBC was incubated with a capped RNA substrate in the presence of increasing concentrations of compound 1 or compound 2 or a m(7)GpppG cap analogue and analyzed by native gel electrophoresis in order to resolve the different RNA and RNA-protein complexes according to Mazza et al. (Large-scale induced fit recognition of an m(7)GpppG cap analogue by the human nuclear cap-binding complex. EMBO J. 21, 5548-5557 (2002).

Turning to `FC(F)(F)Oc1ccc(Nc2ccc3cccc(Cl)c3n2)cc1` [Compound 2, 8-chloro-N-(4-(trifluoromethoxy)phenyl)quinolin-2-amine], the “covalent bridging between CBP20 and CBP80 after UV irradiation” value in assay [1] is recorded as “dose-dependent covalent bridging”. Moreover, the “competition of the complex between CBC and capped RNA” value in assay [2] is “no competition”.
Turning to `Cn1c[n+]([C@@H]2O[C@H](COP(=O)(O)OP(=O)([O-])OP(=O)(O)OC[C@H]3O[C@@H](n4cnc5c(=O)[nH]c(N)nc54)[C@H](O)[C@@H]3O)[C@@H](O)[C@H]2O)c2nc(N)[nH]c(=O)c21` [m^7GpppG, reference compound], the “competition of the complex between CBC and capped RNA” value in assay [2] is “competed”.

The record behind these values is patent US10329317B2, “Quinoline derivative for use in the treatment and prevention of viral infections” (ABIVAX, priority 2015, dated 2019).
